Converted amounts (≈) assume the structure as drawn. “Also recorded” adds a separate entry of the source. Like-named read-outs stand apart in the source and are kept apart here.
How the values were obtained:
DNA topoisomerases = conditions: in words; known antitumor drugs; cited from earlier work
[1] = system: HCT-8 colon cancer cell line; test: In vitro cytotoxicity assay (three day MTT microtiter assay), HCT-8; format: cell-based, human; conditions: read-out: In vitro tumor cell cytotoxicity (IC50), HCT-8
Protocol: (§1) IC50 's were measured in a colorimetric assay for cytotoxic activity against cultured cells according to the protocol described below:
(§2) A three day microtiter assay is used to measure the growth inhibition of cultured cells exposed to a range of drug concentrations. Metabolic activity is measured by the cell's ability to reduce the tetrazolium dye, MTT (3-(4,5-dimethylthiazol-2-yl)-2,5-diphenyltetrazolium bromide) to a quantifiable colored end-product, which absorbs at 570 nm in the visible spectrum. Surviving cells reduce the MTT dye.
Test compounds are dissolved in dimethyl sulfoxide (DMSO) and diluted, first with Earle's Balanced Salt Solution, followed by culture medium, to twice the highest concentration of compound to be tested. […]
The cells are grown in the same medium used for diluting the compounds. After harvesting by trypsinization*, viable cell counts are determined and cell density is adjusted to 25,000 cells/mL. […]
(§3) 4. When the cells have detached as determined by visual and/or microscopic observation, add medium containing fetal calf serum to stop the action of the trypsin and resuspend the cells. […]
After three days, 20 microtiters of 5 mg/mL MTT in phosphate-buffered saline solution is added to each well. […] DMSO is added to each well to dissolve the water insoluble, colored end product of the dye reduction so that it can be measured spectrophotometrically at 570 nm.

Hela cells = test: In vitro cytotoxicity assay (three day MTT microtiter assay), Hela; format: cell-based; conditions: Homo sapiens, 72 h, read-out: In vitro tumor cell cytotoxicity (IC50), Hela
Protocol: as §1, §2
(§4) Test compounds are dissolved in dimethyl sulfoxide (DMSO) and diluted, first with Earle's Balanced Salt Solution, followed by culture medium, to twice the highest concentration of compound to be tested. From this concentrated stock, two-fold serial dilutions are prepared in 96-well microtiter trays, each well containing twice the desired final concentration of compound. Each concentration is tested in triplicate and compared to triplicate drug-free controls.
(§5) The cells are grown in the same medium used for diluting the compounds. After harvesting by trypsinization*, viable cell counts are determined and cell density is adjusted to 25,000 cells/mL. Inoculum (0.1 mL), containing the cells, is then added to each well for a final concentration of 2,500 cells per well. Addition of the inoculum dilutes the test compounds to the desired final concentration.
(§6) *Adherent cells are harvested by trypsinization as follows:
(§7) 1. Remove the medium by aspiration.
(§8) 2. Rinse cell monolayer twice with Earle's Balanced Salt Solution.
(§9) 3. Add trypsin (0.05%)/EDTA (0.53 mM). For each 25 cm^2 use approximately 0.2 mL of solution, tilt to cover the monolayer, then withdraw trypsin leaving only a thin film of solution. Incubate at room temperature until cell monolayer detaches.
(§10) 4. When the cells have detached as determined by visual and/or microscopic observation, add medium containing fetal calf serum to stop the action of the trypsin and resuspend the cells. Triturate to aid dissociation of cell clumps.
(§11) 5. Determine the number of cells per milliliter by electronic cell counter (e.g. Coulter Counter) or by mixing an aliquot of cell suspension with Trypan Blue (0.4% in normal saline) and counting the viable cells using a hemacytometer.
(§12) Microtiter trays are incubated for three days at 36° C. in a humidified atmosphere containing 5% carbon dioxide.
(§13) After three days, 20 microtiters of 5 mg/mL MTT in phosphate-buffered saline solution is added to each well. Trays are returned to the incubator for two to four hours to allow the surviving cells to reduce the dye. Medium and unreduced dye are removed by aspiration. DMSO is added to each well to dissolve the water insoluble, colored end product of the dye reduction so that it can be measured spectrophotometrically at 570 nm.

[2] = system: P388.D1 leukemia cell line; test: In vitro cytotoxicity assay (three day MTT microtiter assay), P388.D1; format: cell-based; conditions: Mus musculus, P388D1, 72 h, read-out: In vitro tumor cell cytotoxicity (IC50), P388.D1
Protocol: (§14) The cytotoxity of the compounds of the present invention is illustrated in Table 6. IC50 's were measured in a colorimetric assay for cytotoxic activity against cultured cells according to the protocol described below:
as §2, §4, §5, §6, §7, §8, §9, §10, §11, §12
as §13, with “nm. The IC50 is determined as the concentration of compound tested required to reduce the absorbance at 570 nm to 50% of non-drug treated control values.” for “nm.”
^c P388 D1 is a leukemia cell line.

A549 cell line = test: In vitro cytotoxicity assay (three day MTT microtiter assay), A549; format: cell-based; conditions: Homo sapiens, read-out: In vitro tumor cell cytotoxicity (IC50), A549
Protocol: as §1, §2, §4, §5, §6, §7, §8, §9, §10, §11, §12, §13

[3] = system: Lewis Lung Carcinoma (LLC1) cells; test: In vitro cytotoxicity assay (three day MTT microtiter assay), LLC1; format: cell-based, murine; conditions: Mus musculus, LLC1, 72 h, read-out: In vitro tumor cell cytotoxicity (IC50), LLC1
Protocol: as §14, §2, §4, §5, §6, §7, §8
3. […]
as §3
After three days, 20 microtiters of 5 mg/mL MTT in phosphate-buffered saline solution is added to each well. […] DMSO is added to each well to dissolve the water insoluble, colored end product of the dye reduction so that it can be measured spectrophotometrically at 570 nm. […]

DNA topoisomerase II = test: DNA Breakage Assay: topoisomerase II-mediated DNA breakage (linearized 32P-labeled PBR 322 plasmid, agarose gel); format: biochemical, calf; set-up: key to Topoisomerase II-mediated DNA breakage, extent of breakage: SB: strong breakage; MB: moderate breakage; WB: weak breakage; conditions: for Topoisomerase II-mediated DNA breakage, extent of breakage: at the concentration given; for Topoisomerase II-mediated DNA breakage, Concentration: concentration of compound which cleaves the DNA to smaller fragments, 30 minutes incubation
Protocol: Antitumor activity was assayed using the DNA Breakage Assay described below.
The DNA breakage assay requires two major reagents: DNA topoisomerase II and radiolabeled DNA. DNA topoisomerase II (topo II) was isolated from calf thymus as described by B. D. Holligan, et al. in J. Biol. Chem., 260, 2475-2482 (1985). Pure enzyme or partially purified extracts enriched in topo II activity may be used. PBR 322 plasmid was used as the DNA substrate. This plasmid, which is isolated in the closed circular form, is first linearized using, a restriction enzyme which cuts the plasmid in only one place. The newly exposed ends of the plasmid are then labeled with the radionuclide, 32P, using standard techniques described by T. Maniatis, et al. in "Molecular Cloning", Cold Spring Harbor Press, p. 115 (1982).
The enzyme and the radiolabeled DNA are added together first, then drug is added. After an incubation period of 30 minutes, the mixtures are quenched using 1% SDS. The mixtures are then subjected to agarose gel electrophoresis which separates the full length, linear substrate DNA from any small fragments that might be formed as a consequence of drug action. Smaller fragments run with a higher mobility. The distribution of the DNA species in the gel is assessed by autoradiography as described by T. Maniatis, et al. in "Molecular Cloning", Cold Spring Harbor Press, p. 115 (1982).
DNA breakage activity is assessed based on the level of substrate lost, the level of DNA appearing as smaller pieces running faster in the gel, and the distribution of these smaller pieces in the gel. The last criterion is important since drug-induced DNA cleavage that is enzyme-mediated fragmentation results in specific banding patterns due to the fact that the enzyme binds to specific sequences along the DNA molecule. A definite banding pattern is thus indicative of topo II-mediated cleavage and correlates well with anti-tumor activity.

P388 Leukemia = test: In vivo antitumor activity, P388 Leukemia, increased lifespan; set-up: species or system BDF1 mice; conditions: IP, day 1 to day 5, survival monitored 30 days
Protocol: (§15) The in vivo data presented in Table 7 was determined in BDF1 mice for two murine cancer models, using 6 to 10 animals per test group. In the case of Lewis Lung carcinoma (LL) the mice are inoculated subcutaneously (SC) in the axillary region with a puncture in the inguinal area with the tumor on day 0. The compound being tested is administered intraperitoneally (IP) from day 1 to day 9 for a total of nine injections. The tumors are weighed on day 14 and the weight inhibition expressed as the median weight ratio of treated (T) to control (C) tumors. In the case of P388 Leukemia cells, a suspension of diluted ascites fluid (0.1 mL) containing 1×10^6 cells is implanted IP into the mice on day 0 and the compound being tested is administered IP from day 1 to day 5 for a total of five injections. Survival was monitored for 30 days and the increased lifespan expressed as median survival time of treated (T) to control (C) mice.

[4] = system: Lewis Lung carcinoma (LL); test: In vivo antitumor activity, Lewis Lung carcinoma (LL), tumor weight inhibition; set-up: species or system BDF1 mice; conditions: IP, day 1 to day 9, determined on day 14
Protocol: as §15

For `COc1cc([C@@H]2c3cc4c(cc3[C@@H](O[C@@H]3O[C@@H]5CO[C@@H](C)O[C@H]5[C@H](O)[C@H]3O)[C@H]3COC(=O)[C@H]23)OCO4)cc(OC)c1O` [Etoposide, etoposide, reference compound], the “effect on DNA topoisomerase-mediated DNA breakage-rejoining / cleavage” value (DNA topoisomerases) is given as “found to affect the breakage-rejoining reaction of mammalian DNA mediated by DNA topoisomerases; also recorded: known to act by inducing topo II mediated DNA cleavage”, the IC50 ([1]; Homo sapiens, HCT-8, 72 h) is given as 0.68 µg/mL (≈ 1.16 µM) and the IC50 (Hela cells; HeLa) is given as 4 µg/mL (≈ 6.8 µM). For the same compound, the IC50 [2] was 0.05 µg/mL (≈ 0.085 µM) and the IC50 (A549 cell line; A549, 72 h) was 1 µg/mL (≈ 1.7 µM).
In the case of `O=c1[nH]sc2c1c(=O)c1cc(F)c(N3CCNCC3)c(F)c1n2C1CC1` [Example 2], the IC50 (Hela cells; HeLa) is reported as 3.9 µg/mL (≈ 10.3 µM), the IC50 [3] is reported as 0.99 µg/mL (≈ 2.62 µM) and the “Topoisomerase II-mediated DNA breakage, extent of breakage” value (DNA topoisomerase II) is reported as “SB”. For the same compound, the “Topoisomerase II-mediated DNA breakage, Concentration” value (DNA topoisomerase II) was 32 µg/mL.
With `CC1CN(c2c(F)cc3c(=O)c4c(=O)[nH]sc4n(C4CC4)c3c2F)CCN1` (centres unmarked) [Example 3] the IC50 ([1]; 72 h, HCT-8 human colon cancer, three days, MTT) was 14 µg/mL (≈ 35.7 µM), the “P388 Leukemia % T/C, median lifespan of treated compared to control mice” value (from here on “P388 Leukemia % T/C, median lifespan”) (P388 Leukemia; 31.5 mg/kg) was 145% and the “P388 Leukemia % T/C, median lifespan” value (P388 Leukemia; 62.5 mg/kg) was 145%. For the same compound, the “P388 Leukemia % T/C, median lifespan” value (P388 Leukemia; 125 mg/kg) was 160%, the “P388 Leukemia % T/C, median lifespan” value (P388 Leukemia; 250 mg/kg) was 160% and the IC50 [2] was 3.1 µg/mL (≈ 7.9 µM). For the same compound, the “LL (T/C), median weight ratio of treated to control tumors” value (“LL (T/C), median weight ratio of treated” below) ([4]; 31.5 mg/kg) was 0.81, the “LL (T/C), median weight ratio of treated” value ([4]; 62.5 mg/kg) was 0.75 and the “LL (T/C), median weight ratio of treated” value ([4]; 125 mg/kg) was 0.59. The “LL (T/C), median weight ratio of treated” value ([4]; 250 mg/kg) was 0.35, the IC50 (A549 cell line; 72 h, A549, three days, MTT) was 8.3 µg/mL (≈ 21.2 µM) and the “Topoisomerase II-mediated DNA breakage, extent of breakage” value (DNA topoisomerase II) was “SB”. The “Topoisomerase II-mediated DNA breakage, Concentration” value (DNA topoisomerase II) was 32 µg/mL.
For `NC1CCN(c2c(F)cc3c(=O)c4c(=O)[nH]sc4n(C4CC4)c3c2F)C1` (centres unmarked) [Example 11], the IC50 (Hela cells; Hela cells, three days, MTT) was 0.95 µg/mL (≈ 2.51 µM), the IC50 ([3]; Lewis Lung Carcinoma, three days, MTT) was 0.52 µg/mL (≈ 1.37 µM) and the “Topoisomerase II-mediated DNA breakage, extent of breakage” value (DNA topoisomerase II) was “SB”. The “Topoisomerase II-mediated DNA breakage, Concentration” value (DNA topoisomerase II) was 32 µg/mL.
In the case of `CCn1c2s[nH]c(=O)c2c(=O)c2cc(F)c(N3CCNCC3)c(F)c21` [Example 14], the IC50 (Hela cells; HeLa) is reported as 4 µg/mL (≈ 10.9 µM), the IC50 [3] is reported as 1.5 µg/mL (≈ 4.09 µM) and the “Topoisomerase II-mediated DNA breakage, extent of breakage” value (DNA topoisomerase II) is reported as “MB”. For the same compound, the “Topoisomerase II-mediated DNA breakage, Concentration” value (DNA topoisomerase II) was 64 µg/mL.
For `O=C1c2c(O)ccc(O)c2C(=O)c2c(NCCNCCO)ccc(NCCNCCO)c21` [mitoxantrone], the “effect on DNA topoisomerase-mediated DNA breakage-rejoining / cleavage” value (DNA topoisomerases) is listed as “found to affect the breakage-rejoining reaction of mammalian DNA mediated by DNA topoisomerases”.
In the case of `COc1cc([C@@H]2c3cc4c(cc3[C@@H](O[C@@H]3O[C@@H]5CO[C@@H](c6cccs6)O[C@H]5[C@H](O)[C@H]3O)[C@H]3COC(=O)[C@H]23)OCO4)cc(OC)c1O` [teniposide], the “effect on DNA topoisomerase-mediated DNA breakage-rejoining / cleavage” value (DNA topoisomerases) is listed as “found to affect the breakage-rejoining reaction of mammalian DNA mediated by DNA topoisomerases; also recorded: known to act by inducing topo II mediated DNA cleavage”.

From patent US5071848A, “Tricyclic quinoline antineoplastic agents” (Abbott Laboratories, priority 1989, dated 1991)
